{
  "source": "patent US7033999B2",
  "about": "“Nitrosated and nitrosylated heme proteins” (Brigham and Women's Hospital, priority 1991, dated 2006)",
  "key": {"gel-filtered platelets [1]": {"test_system": "gel-filtered platelets", "assay": "Platelet aggregation (nephelometric aggregometry)", "format": "cell-based, human", "settings": "5 μM ADP", "experimental": "(§1) Venous blood, anticoagulated with 1-mM trisodium citrate, was obtained from volunteers who had not consumed acetylsalicylic acid for at least ten days. Platelet-rich plasma (PRP) was prepared by centrifugation at 150 g for ten minutes at 25° C. Platelet counts were determined with a Coulter counter (model ZM; Coulter Electronics, Hialeah, Fla.).\n(§2) Platelets were gel-filtered on a 4× 10 cm column of Sepharose 2B in Tyrode's Hepes buffer as described previously (Hawiger et al., Nature 2831:195–198 (1980), herein incorporated by reference). Platelets were typically suspended at a concentration of 1.5×10^8/ml and were used within 30 minutes of preparation. Platelet aggregation was monitored using a standard nephelometric technique (Born, et al., J. Physiol. 168:178–195 (1963), herein incorporated by reference), in which 0.3-ml aliquots of gel-filtered platelets were incubated at 37° C. and stirred at 1000 rpm in a PAP-4 aggregometer (Biodata, Hatboro, Pa.). Gel-filtered platelets were preincubated with t-PA or S—NO-t-PA for up to 45 minutes and aggregations induced with 5 μM ADP or 0.025 U/ml thrombin.\nAggregations were quantified by measuring the maximal rate or extent of light transmittance and expressed as a normalized value relative to control aggregations.\nThe effect of S-nitroso-BSA on platelet aggregation was studied, using a gel-filtered platelet preparation, as previously described (Hawiger et al., Nature 2831:195 (1980)) and suspended at 150,000 platelets/ul in HEPES buffer, pH 7.35. S—NO-BSA was incubated with platelets for ten minutes at 37° C. in a PAP-4 aggregometer (BioData, Hatboro, Pa.), after which aggregations were induced with 5 μM ADP. Aggregations were quantified by measuring the extent of change of light transmittance and expressed as a normalized value relative to control aggregations."}, "gel-filtered platelets [2]": {"test_system": "gel-filtered platelets", "assay": "Intracellular platelet cyclic GMP (radioimmunoassay)", "format": "cell-based, human", "experimental": "as §1, §2\nThe antiplatelet actions of S-nitrosothiols are mediated by cyclic GMP. Measurements of cGMP were performed by radioimmunoassay. Gel-filtered platelets were pre-incubated for 180 seconds with S—NO-t-PA (9 μM), and related controls. […]"}},
  "data": [
    {"substance": "S—NO-t-PA: derived from the nitrosylation of tissue-type plasminogen activator (t-PA)", "values": [
      {"measurement": "effect on platelet aggregation, synthesized with authentic EDRF", "setting": "gel-filtered platelets [1]; 333 nM, preincubated ten minutes", "value": "inhibition of platelet aggregation"},
      {"measurement": "inhibition in rate and extent of aggregation", "setting": "gel-filtered platelets [1]; 1.4 μM, mean ±S.D., n=4", "value": "50±16", "unit": "%"},
      {"measurement": "increase in intracellular cyclic GMP above basal levels", "setting": "gel-filtered platelets [2]; 9 μM, 180 seconds, basal in the presence of t-PA", "value": 85, "unit": "%"},
      {"measurement": "elevation in platelet cGMP after preincubation with methylene blue", "setting": "gel-filtered platelets [2]; methylene blue 10 μM for ten minutes", "value": "entirely prevented"}
    ]}
  ]
}
